According to PubChem BioAssay (NCI):
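The compound was tested at five concentrations on cells cultured in 96-well plates, with a 48-hour exposure period. At the GI50, growth is halved. TGI marks complete inhibition of growth.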

Key:
Test in all cases: growth of human tumour cells (NCI), 48 h
[1] = test system: NCI/ADR-RES ovarian
[2] = test system: SNB-19 CNS
[3] = test system: SR leukemia
[4] = test system: SNB-75 CNS
[5] = test system: DU-145 prostate
[6] = test system: SK-OV-3 ovarian
[7] = test system: OVCAR-3 ovarian
[8] = test system: MDA-MB-231 breast
[9] = test system: IGROV1 ovarian
[10] = test system: OVCAR-4 ovarian
[11] = test system: MOLT-4 leukemia
[12] = test system: SF-295 CNS
[13] = test system: 786-0 renal
[14] = test system: ACHN renal
[15] = test system: MCF7 breast
[16] = test system: CCRF-CEM leukemia
[17] = test system: OVCAR-5 ovarian
[18] = test system: SK-MEL-28 melanoma
[19] = test system: K-562 leukemia
[20] = test system: TK-10 renal
[21] = test system: EKVX NSCLC
[22] = test system: UO-31 renal
[23] = test system: PC-3 prostate
[24] = test system: NCI-H460 lung
[25] = test system: CAKI-1 renal
[26] = test system: HCT-15 colon
[27] = test system: HOP-92 NSCLC
[28] = test system: SF-539 CNS
[29] = test system: BT-549 breast
[30] = test system: MALME-3M melanoma
[31] = test system: RXF 393 renal
[32] = test system: MDA-MB-435
[33] = test system: HCC-2998 colon
[34] = test system: UACC-62 melanoma
[35] = test system: SN12C renal
[36] = test system: COLO 205 colon
[37] = test system: SW-620 colon
[38] = test system: U251 CNS
[39] = test system: RPMI-8226 leukemia
[40] = test system: SF-268 CNS
[41] = test system: A498 renal
[42] = test system: NCI-H522 lung
[43] = test system: SK-MEL-2 melanoma
[44] = test system: HOP-62 NSCLC
[45] = test system: LOX IMVI melanoma
[46] = test system: T-47D breast
[47] = test system: UACC-257 melanoma
[48] = test system: KM12 colon
[49] = test system: A549 NSCLC
[50] = test system: HS 578T breast
[51] = test system: HT29 colon
[52] = test system: OVCAR-8 ovarian
[53] = test system: SK-MEL-5 melanoma
[54] = test system: M14 melanoma
[55] = test system: HL-60(TB) leukemia
[56] = test system: NCI-H226 lung
[57] = test system: NCI-H23 lung
[58] = test system: HCT-116 colon

## C=C(C)[C@@H]1CC[C@]2(COP(=O)(OCC)OCC)CC[C@]3(C)[C@H](CC[C@@H]4[C@@]5(C)CCCNC(C)(C)[C@@H]5CC[C@]43C)[C@@H]12
[1]
  GI50: 1660 nM
  TGI: 3260 nM
[2]
  GI50: 1710 nM
  TGI: 3170 nM
[3]
  GI50: 1410 nM
  TGI: 4090 nM
[4]
  GI50: 1220 nM
  TGI: 2850 nM
[5]
  GI50: 1790 nM
  TGI: 3390 nM
[6]
  GI50: 1690 nM
  TGI: 3250 nM
[7]
  GI50: 1670 nM
  TGI: 3380 nM
[8]
  GI50: 1750 nM
  TGI: 3330 nM
[9]
  GI50: 1610 nM
  TGI: 3180 nM
[10]
  GI50: 1540 nM
  TGI: 3130 nM
[11]
  GI50: 1850 nM
  TGI: 4720 nM
[12]
  GI50: 1680 nM
  TGI: 3150 nM
[13]
  GI50: 1710 nM
  TGI: 3210 nM
[14]
  GI50: 1730 nM
  TGI: 3140 nM
[15]
  GI50: 1330 nM
  TGI: 2970 nM
[16]
  GI50: 1710 nM
  TGI: 3850 nM
[17]
  GI50: 1720 nM
  TGI: 3140 nM
[18]
  GI50: 1750 nM
  TGI: 3180 nM
[19]
  GI50: 1660 nM
  TGI: 7000 nM
[20]
  GI50: 1860 nM
  TGI: 3580 nM
[21]
  GI50: 1460 nM
  TGI: 2880 nM
[22]
  GI50: 1440 nM
  TGI: 2810 nM
[23]
  GI50: 1590 nM
  TGI: 2980 nM
[24]
  GI50: 1790 nM
  TGI: 4620 nM
[25]
  GI50: 1500 nM
  TGI: 2990 nM
[26]
  GI50: 1560 nM
  TGI: 3050 nM
[27]
  GI50: 1230 nM
  TGI: 2570 nM
[28]
  GI50: 1730 nM
  TGI: 3240 nM
[29]
  GI50: 1680 nM
  TGI: 3090 nM
[30]
  GI50: 1680 nM
  TGI: 3370 nM
[31]
  GI50: 1550 nM
  TGI: 2910 nM
[32]
  GI50: 1730 nM
  TGI: 3180 nM
[33]
  GI50: 1720 nM
  TGI: 3220 nM
[34]
  GI50: 1700 nM
  TGI: 3200 nM
[35]
  GI50: 1570 nM
  TGI: 3150 nM

## COc1cccc2c1C=CC1(O2)Oc2cccc(OC)c2C=C1C (stereo not given)
[36]
  GI50: 243 nM
  TGI: 587 nM
[1]
  GI50: 417 nM
  TGI: > 81700 nM
[2]
  GI50: 649 nM
  TGI: > 100000 nM
[3]
  GI50: 284 nM
  TGI: 2060 nM
[4]
  GI50: 218 nM
  TGI: 1510 nM
[37]
  GI50: 434 nM
  TGI: > 100000 nM
[38]
  GI50: 415 nM
  TGI: 5520 nM
[39]
  GI50: 352 nM
  TGI: 2350 nM
[5]
  GI50: 727 nM
  TGI: > 100000 nM
[40]
  GI50: 1840 nM
  TGI: > 100000 nM
[6]
  GI50: 700 nM
  TGI: > 100000 nM
[41]
  GI50: 486 nM
  TGI: 5430 nM
[42]
  GI50: 290 nM
[8]
  GI50: 596 nM
  TGI: > 60200 nM
[9]
  GI50: 794 nM
  TGI: > 100000 nM
[10]
  GI50: 6390 nM
  TGI: > 100000 nM
[43]
  GI50: 588 nM
[44]
  GI50: 1490 nM
  TGI: > 100000 nM
[45]
  GI50: 515 nM
  TGI: 3950 nM
[11]
  GI50: 430 nM
[12]
  GI50: 359 nM
  TGI: > 44200 nM
[13]
  GI50: 563 nM
[46]
  GI50: 858 nM
  TGI: > 100000 nM
[47]
  GI50: 1510 nM
  TGI: > 100000 nM
[48]
  GI50: 544 nM
  TGI: > 100000 nM
[14]
  GI50: 699 nM
  TGI: > 100000 nM
[15]
  GI50: 383 nM
  TGI: > 100000 nM
[16]
  GI50: 356 nM
  TGI: 3320 nM
[49]
  GI50: 821 nM
  TGI: > 100000 nM
[50]
  GI50: 2100 nM
  TGI: > 100000 nM
[17]
  GI50: 1300 nM
  TGI: > 100000 nM
[51]
  GI50: 404 nM
[18]
  GI50: 2880 nM
  TGI: > 100000 nM
[52]
  GI50: 1340 nM
  TGI: 6820 nM
[19]
  GI50: 347 nM
  TGI: > 100000 nM
[20]
  GI50: 12200 nM
  TGI: > 100000 nM
[21]
  GI50: 2110 nM
  TGI: > 100000 nM
[22]
  GI50: 1270 nM
  TGI: > 100000 nM
[23]
  GI50: 376 nM
  TGI: > 36400 nM
[24]
  GI50: 426 nM
  TGI: 2490 nM
[25]
  GI50: 461 nM
  TGI: > 100000 nM
[53]
  GI50: 521 nM
  TGI: 11000 nM
[26]
  GI50: 420 nM
  TGI: > 43600 nM
[27]
  GI50: 316 nM
[54]
  GI50: 345 nM
  TGI: 4890 nM
[28]
  GI50: 363 nM
  TGI: 1840 nM
[29]
  GI50: 656 nM
  TGI: 6390 nM
[30]
  GI50: 899 nM
  TGI: 48000 nM
[55]
  GI50: 364 nM
  TGI: > 100000 nM
[56]
  GI50: 1750 nM
  TGI: > 100000 nM
[31]
  GI50: 300 nM
  TGI: 1630 nM
[57]
  GI50: 1370 nM
  TGI: > 100000 nM
[32]
  GI50: 226 nM
  TGI: 556 nM
[33]
  GI50: 1430 nM
  TGI: 9320 nM
[58]
  GI50: 413 nM
  TGI: 10500 nM
[35]
  GI50: 683 nM
  TGI: > 100000 nM

## O=C(Nc1ccc(F)c(F)c1)c1cc(-c2ccc(F)cc2F)ccc1O
[36]
  GI50: 10600 nM
  TGI: 30500 nM
[2]
  GI50: 1650 nM
  TGI: > 50000 nM
[3]
  GI50: 1920 nM
  TGI: > 50000 nM
[4]
  GI50: 906 nM
  TGI: 2720 nM
[37]
  GI50: 1790 nM
  TGI: > 50000 nM
[38]
  GI50: 1480 nM
  TGI: > 50000 nM
[39]
  GI50: 768 nM
  TGI: 2720 nM
[5]
  GI50: 1850 nM
  TGI: > 50000 nM
[40]
  GI50: 1580 nM
  TGI: > 50000 nM
[6]
  GI50: 1370 nM
  TGI: 4700 nM
[41]
  GI50: 636 nM
  TGI: 2070 nM
[42]
  GI50: 923 nM
  TGI: > 50000 nM
[9]
  GI50: 1810 nM
  TGI: > 50000 nM
[10]
  GI50: 1370 nM
  TGI: > 50000 nM
[43]
  GI50: 979 nM
  TGI: 2860 nM
[44]
  GI50: 1590 nM
  TGI: 6150 nM
[11]
  GI50: 1540 nM
  TGI: 5860 nM
[12]
  GI50: 1200 nM
  TGI: 3580 nM
[13]
  GI50: 1120 nM
  TGI: 2900 nM
[47]
  GI50: 781 nM
  TGI: 3600 nM
[48]
  GI50: 1670 nM
  TGI: 6650 nM
[14]
  GI50: 1460 nM
  TGI: 4550 nM
[15]
  GI50: 1180 nM
  TGI: > 50000 nM
[16]
  GI50: 1620 nM
  TGI: > 50000 nM
[49]
  GI50: 1570 nM
  TGI: > 50000 nM
[50]
  GI50: 1610 nM
  TGI: > 50000 nM
[17]
  GI50: 1550 nM
  TGI: > 50000 nM
[51]
  GI50: 13800 nM
  TGI: > 50000 nM
[18]
  GI50: 1410 nM
  TGI: 19100 nM
[52]
  GI50: 1650 nM
  TGI: > 50000 nM
[19]
  GI50: 1370 nM
  TGI: > 50000 nM
[20]
  GI50: 1700 nM
  TGI: > 50000 nM
[21]
  GI50: 1380 nM
  TGI: 15700 nM
[23]
  GI50: 1490 nM
  TGI: > 50000 nM
[24]
  GI50: 1460 nM
  TGI: > 50000 nM
[25]
  GI50: 1100 nM
  TGI: 3520 nM
[53]
  GI50: 694 nM
  TGI: 1670 nM
[26]
  GI50: 1430 nM
  TGI: 6230 nM
[27]
  GI50: 684 nM
  TGI: 2640 nM
[54]
  GI50: 1630 nM
  TGI: 9820 nM
[28]
  GI50: 1730 nM
  TGI: > 50000 nM
[29]
  GI50: 1060 nM
  TGI: 7180 nM
[30]
  GI50: 1010 nM
  TGI: 3070 nM
[55]
  GI50: 1110 nM
  TGI: 2810 nM
[56]
  GI50: 1510 nM
  TGI: 10100 nM
[31]
  GI50: 1250 nM
  TGI: 3870 nM
[57]
  GI50: 1070 nM
  TGI: 3230 nM
[32]
  GI50: 1430 nM
  TGI: 6510 nM
[33]
  GI50: 1490 nM
  TGI: > 50000 nM
[34]
  GI50: 628 nM
  TGI: 2410 nM
[58]
  GI50: 1120 nM
  TGI: 5940 nM
[35]
  GI50: 1090 nM
  TGI: 4630 nM
